Reference: ChEMBL document CHEMBL1949579, “2-Arylbenzofuran, flavonoid, and tyrosinase inhibitory constituents of Morus yunnanensis” (J Nat Prod, 2012)

Tests used:
[1] = target: T1, Tyrosinase (Agaricus bisporus) (UniProt O42713); assay: Inhibition of mushroom tyrosinase assessed as oxidation of L-dopa at 25 uM by spectrophotometric analysis
T1 sequence (whole entry): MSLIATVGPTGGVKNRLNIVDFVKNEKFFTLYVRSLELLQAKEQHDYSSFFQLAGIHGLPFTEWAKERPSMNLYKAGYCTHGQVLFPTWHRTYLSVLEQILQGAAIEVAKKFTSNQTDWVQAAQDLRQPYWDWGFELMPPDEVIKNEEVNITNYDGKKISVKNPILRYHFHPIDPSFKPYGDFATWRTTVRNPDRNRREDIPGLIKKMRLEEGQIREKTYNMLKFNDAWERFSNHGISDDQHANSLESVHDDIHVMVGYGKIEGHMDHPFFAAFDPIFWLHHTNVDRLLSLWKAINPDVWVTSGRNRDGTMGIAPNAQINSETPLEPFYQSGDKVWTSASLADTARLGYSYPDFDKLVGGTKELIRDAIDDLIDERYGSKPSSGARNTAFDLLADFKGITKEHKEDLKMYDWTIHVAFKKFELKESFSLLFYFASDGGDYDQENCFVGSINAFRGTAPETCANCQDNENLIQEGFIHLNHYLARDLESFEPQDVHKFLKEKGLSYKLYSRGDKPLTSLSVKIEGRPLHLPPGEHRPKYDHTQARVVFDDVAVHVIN

[2] = target: T2, Tyrosinase (Agaricus bisporus, UniProt O42713); assay: Inhibition of mushroom tyrosinase assessed as oxidation of L-dopa by spectrophotometric analysis
T2 sequence (O42713 whole entry): T1 sequence (whole entry)

Row | Structure (SMILES) | inhibition [1] [%] | IC50 [2] [µM]
1 | COc1ccc(CCC(c2ccc(O)cc2O)c2cc([C@@H]3CCc4ccc(OC)c(CC=C(C)C)c4O3)c(O)cc2O)c(O)c1CC=C(C)C (some centres not stated) | < 50 | 
2 | COc1ccc2c(c1CCO)O[C@@H](c1ccc(O)cc1O)CC2 |  | 0.12
3 | CC(C)=CCc1c(O)ccc2c1O[C@H](c1ccc(O)cc1)CC2 | < 50 | 
4 | COc1ccc2c(c1C/C=C(\C)CO)O[C@H](c1ccc(O)cc1O)CC2 [MORUSYUNNANSINS E] |  | 1.43
5 | CC(C)=CCc1c(O)ccc2c1O[C@H](c1ccc(O)cc1O)CC2 [MORUSYUNNANSINS F] |  | 0.15
6 | COc1ccc([C@@H]2CCc3ccc(O)c(CC=C(C)C)c3O2)c(O)c1 | < 50 | 
7 | COc1ccc(CCC(c2ccc(O)cc2O)c2cc([C@H]3CCc4ccc(OC)c(CC=C(C)C)c4O3)c(O)cc2O)c(O)c1CC=C(C)C (some centres not stated) | < 50 | 
